Patent US9476099B2 (TRUSTEES OF DARTMOUTH COLLEGE, priority 2012, dated 2016)
pIC50: −log10 of the molar value. “Also recorded” adds a separate entry of the source.

Assays:
[1] = system: colorectal cancer, cancer of the head and neck, renal carcinoma, or malignant melanoma; conditions: 75 mg/m^2, 3 treatments in one day, repeated once a week for 5 weeks; Abele et al. 1987; cited from earlier work
U87 glioblastomoa cells = assay: Decitabine treatment of glioblastoma cells; type: cell-based; conditions: doses as high as 1 μM
NT2/D1 cells [2] = assay: Gene expression microarray with PAM cluster analysis (Tables 1-5); type: cell-based, human; conditions: 1.5-fold or greater
Experimental: The cisplatin treatment protocol has been previously described (Kerley-Hamilton et al. 2005. Oncogene 24:6090-6100).
The same effect was not observed in cells treated with cisplatin; gene expression levels were not dramatically altered in cisplatin-treated cells. […] The genes clustered into distinct patterns.
Next, partitioning around medoids (PAM) analysis was performed on the 1130 genes whose expression levels changed by 1.5-fold or greater as compared to control treatment. […] Changes in gene expression levels of representative genes for each cluster were confirmed in independent samples by real-time PCR (FIG. 10).
(§1) Expression analysis was performed on the […] HumanHT-12 v3 or […] HumanHT-12 v4 bead chip arrays ([…]) and scanned on the BeadArray Reader ([…]) according to manufacturer's instructions.

NT2 cells = assay: Gene set enrichment analysis (GSEA) of microarray data (Table 6); type: cell-based, human
Experimental: Gene set enrichment analysis (GSEA) was performed.
as §1

NT2/D1-R1 cells [3] = assay: Apoptosis by PARP cleavage and sub G1 DNA content; type: cell-based; conditions: decitabine 10 nM, three days; NT2/D1-R1
Experimental: Importantly, decitabine-mediated H2AX activation also occurs in the presence of the caspase 3 inhibitor (Z-VAD-FMK) at concentrations that inhibit PARP cleavage.
(§2) Cells were cultured in DMEM media (Gibco) with 10% FBS. Decitabine was added fresh each day. Lentiviral control cells and the stable shRNA DNMT3B knockdown cell line (NT2/D1-R1-sh84) were described previously (Beyrouthy et al. 2009. Cancer Res. 69:9360-9366). DNMT3B knockdown was greater than 90% as confirmed by western blot analysis. Cell proliferation and survival were assessed with the CELL-TITRE GLO assay (Promega). Cell cycle analysis with propidium iodine has been previously described (Kerley-Hamilton et al. 2005. Oncogene 24:6090-6100).
SYBR green-based real-time PCR (Applied Biosystems) was employed using the ddCT method normalized to GAPDH. For western blot analysis cells were lysed in radioimmune precipitation buffer and separated by SDS-PAGE. Antibodies to actin (sc01615, Santa Cruz), 139-H2AX (Cell Signaling), PARP (c-2-10, Biomol International) and p53 (D0-1, Santa Cruz) were used.

NT2/D1-R1 cells [4] = assay: Cell-Titre Glo viable cell growth and survival, 3 day decitabine; type: cell-based; conditions: 10 nM, FIG. 1
Experimental: (§3) Indicated doses of decitabine were added fresh each day for three days to exponentially growing cultures. Viable cell growth and survival were measured. Data are normalized to no drug treatment. EC cells are NT2/D1, NT2D1/R1, 833K, 833KCP, and Tera-1. Data are the average of 3 experiments in biological duplicate except for MCF-7 cells, which were assayed twice. Error bars are standard deviation (S.D.).
(§4) Cell growth and viability of five EC cell lines (NT2/D1, NT2D1/R1, 833K, 833KCP, and Tera-1) were determined, including two cell lines that are cisplatin-resistant (NT2/D1-R1 and 833KCP). Three control somatic tumor cell lines were also tested (HCT116, MCF7 and U2OS). […] Viable cell growth and survival were measured using Cell-Titre Glo (Promega) assays. […] These higher values are similar to the values shown in FIG. 1 for somatic tumor cell lines (MCF7, U2OS and HCT116).
(§5) NT2/D1, NT2D1-R1, 833K, 833K-CP, Tera-1, U20S, and HCT116 cells were cultured in DMEM with 10% FBS supplemented with glutamine and antibiotics except for MCF7 cells that were cultured in F12-DMEM. The derivation of the NT2/D1-resistant NT2/D1-R1 cell line has been previously described (Curtin et al. 2001. Oncogene 20:2559-2569; Kerley-Hamilton et al. 2007. Biochim. Biophys. Acta 1769:209-219). Cells were treated with the indicated dosages of 5-azadeoxycytidine (5-aza-CdR) for 3 days. This drug was replenished each day. Cisplatin (Bristol Laboratories) treatments were performed at the concentrations and time points indicated. To assess cell proliferation and survival, CELL-TITRE GLO (Promega) assays were performed.
as §2

NT2/D1 cells [5] = assay: as above; type: cell-based; conditions: 72 h, read-out: IC50, growth inhibition
Experimental: as §3, §4, §5, §2

[6] = system: RIN1, SOX15 and TLR4 promoter in NT2/D1 cells; assay: Promoter specific bisulfite pyrosequencing; type: cell-based; conditions: 10 nM, 3 days, FIG. 13
From the text: The graph depicts an average of triplicate sample determinations. Error bars are standard deviation. **=p<0.005. SOX15 values represent the average methylation value across two CpG sites. RIN1 and TRL4 values represent the average methylation across three CpG sites.
However, methylation changes were less robust in the experiments in NT2/D1 cells. Only 12 genes were identified as having significant decreases in promoter methylation. […] These six genes included RIN1, SOX15, TLR4, GPER, TRIM54, and CD164L2.
Genomic DNA was isolated with the QIAMP DNA mini kit (Qiagen) and bisulfite converted with the EZ DNA methylation kit (Zymo Research). DNA was amplified with HOTSTARTAQ plus DNA polymerase (Qiagen). The LINE-1 pyrosequencing assay averages across four CpG sites and has been described previously (Kashiwagi et al. 2011. Nucleic Acids Res. 39:874-888). Pyrosequencing assays for RIN1, SOX15, and TLR4 were designed with PyroMark assay design software (Qiagen) to sequence across corresponding probes cg0599842, cg02515422 and cg13098960 on the HumanMethylation27 BeadChip.

[7] = system: non-seminiferous testicular cancer (germ cell testicular cancer); conditions: 75 mg/m^2, 3 infusions in one day, repeated once a week for 5 weeks; Clavel et al. 1992; cited from earlier work
[8] = Gene Sets Depleted in NT2 Cells with 3-Day Decitabine Treatment (10 nM)
[9] = Gene Sets Enriched in NT2 Cells with 3-Day Decitabine Treatment (10 nM)

## Nc1ncn([C@H]2C[C@H](O)[C@@H](CO)O2)c(=O)n1 [decitabine, 5-aza-deoxycytidine]
[1]
  efficacy against cancer in patients: no efficacy
U87 glioblastomoa cells
  effect of decitabine treatment on U87 cells: unaffected
NT2/D1 cells [2]; 10 nM, 3 days
  Cluster 1: genes primarily up-regulated only with 3 days of decitabine treatment: 704 genes
NT2/D1 cells [2]
  Cluster 3: genes upregulated by both decitabine treatment and cisplatin treatment: 71 genes
  Cluster 4: genes down-regulated by decitabine, enriched in pluripotency genes: 186 genes
  Cluster 5: genes down-regulated by both decitabine treatment and cisplatin treatment: 88 genes
NT2 cells; [8]
  NES, BENPORATH_ES_1: 2.6981
  NES, BENPORATH_ES_2: 2.3953
  NES, BHATTACHARYA_EMBRYONIC_STEM_CELL: 2.2132
  NES, CONRAD_STEM_CELL: 2.1627
  NES, MISSIAGLIA_REGULATED_BY_METHYLATION_DN: 2.1720
  NES, MUELLER_PLURINET: 2.2694
  NES, PAL_PRMT5_TARGETS_UP: 2.2049
  NES, SCHLOSSER_MYC_TARGETS_AND_SERUM_RESPONSE_DN: 2.2821
  NES, SCHLOSSER_MYC_TARGETS_REPRESSED_BY_SERUM: 2.4043
  NES, SCHUHMACHER_MYC_TARGETS_UP: 2.5662
  NES, VSE2F_02: 2.2708
  NES, WONG_EMBRYONIC_STEM_CELL_CORE: 2.4279
NT2 cells; [9]
  NES, CONCANNON_APOPTOSIS_BY_EPOXOMICIN_UP: −2.2139
  NES, HAMAI_APOPTOSIS_VIA_TRAIL_DN: −1.9615
  NES, HELLER_SILENCED_BY_METHYLATION_UP: −1.9604
  NES, KERLEY_RESPONSE_TO_CISPLATIN_UP: −2.4408
  NES, KIM_RESPONSE_TO_TSA_AND_DECITABINE_UP: −1.9665
  NES, KYNG_DNA_DAMAGE_BY_UV: −2.0319
  NES, MISSIAGLIA_REGULATED_BY_METHYLATION_UP: −2.1687
  NES, MUELLER_METHYLATED_IN_GLIOBLASTOMA: −2.0961
  NES, RUGO_UV_RESPONSE: −1.9676
NT2/D1-R1 cells [3]
  apoptotic responses (PARP cleavage, sub G1 DNA content with G2 arrest): apoptotic responses; also recorded: induced apoptosis
NT2/D1-R1 cells [4]
  inhibition of proliferation versus control: 10%
NT2/D1 cells [5]
  pIC50: 7.60 to 8.30
[6]
  promoter methylation of RIN1, SOX15 and TLR4 (bisulfite pyrosequencing): decreased promoter methylation
[7]
  activity in Phase II clinical trial patients: no activity
